{
  "source": "the NIST ThermoML archive (doi:10.1016/j.jct.2010.01.008)",
  "key": {"[1]": {"experiment": "xn = mol fraction of the nth substance listed", "conditions": "298.15 K, 101.3 kPa, Liquid, Vibrating tube method"}, "[2]": {"conditions": "298.15 K; 101.33 kPa; Liquid; Vibrating tube method"}, "[3]": {"experiment": "refractive index (Na D-line) (dimensionless)", "conditions": "298.15 K; 101.33 kPa; Liquid; Automatic Refractometer"}},
  "note": "± gives the expanded uncertainty stated by the source.",
  "data": [
    {"compound": "CCCCCCCCC", "note": "[nonane] + Cc1ccccc1", "values": [
      {"measurement": "mass density", "setting": "[1]; x1 = 0.096", "result": "838.74 ± 0.27", "unit": "kg/m3"},
      {"measurement": "mass density", "setting": "[1]; x1 = 0.1942", "result": "817.91 ± 0.25", "unit": "kg/m3"},
      {"measurement": "mass density", "setting": "[1]; x1 = 0.2952", "result": "799.09 ± 0.24", "unit": "kg/m3"},
      {"measurement": "mass density", "setting": "[1]; x1 = 0.3954", "result": "782.63 ± 0.23", "unit": "kg/m3"},
      {"measurement": "mass density", "setting": "[1]; x1 = 0.4954", "result": "768.02 ± 0.23", "unit": "kg/m3"},
      {"measurement": "mass density", "setting": "[1]; x1 = 0.5929", "result": "755.35 ± 0.23", "unit": "kg/m3"},
      {"measurement": "mass density", "setting": "[1]; x1 = 0.6939", "result": "743.54 ± 0.24", "unit": "kg/m3"},
      {"measurement": "mass density", "setting": "[1]; x1 = 0.7939", "result": "732.97 ± 0.25", "unit": "kg/m3"},
      {"measurement": "mass density", "setting": "[1]; x1 = 0.8947", "result": "723.28 ± 0.26", "unit": "kg/m3"},
      {"measurement": "mass density", "setting": "[1]; x1 = 1", "result": "713.99 ± 0.26", "unit": "kg/m3"}
    ]},
    {"compound": "Cc1ccccc1", "note": "[toluene] + CCCCCCCCC", "values": [
      {"measurement": "mass density", "setting": "[1]; x2 = 0", "result": "862.17 ± 0.14", "unit": "kg/m3"}
    ]},
    {"compound": "CCCCCCCC", "note": "[octane] + Cc1ccccc1", "values": [
      {"measurement": "mass density", "setting": "[1]; x1 = 0.0982", "result": "838.13 ± 0.27", "unit": "kg/m3"},
      {"measurement": "mass density", "setting": "[1]; x1 = 0.1977", "result": "816.31 ± 0.26", "unit": "kg/m3"},
      {"measurement": "mass density", "setting": "[1]; x1 = 0.2975", "result": "796.62 ± 0.24", "unit": "kg/m3"},
      {"measurement": "mass density", "setting": "[1]; x1 = 0.3983", "result": "778.64 ± 0.23", "unit": "kg/m3"},
      {"measurement": "mass density", "setting": "[1]; x1 = 0.5005", "result": "761.92 ± 0.23", "unit": "kg/m3"},
      {"measurement": "mass density", "setting": "[1]; x1 = 0.5988", "result": "747.35 ± 0.22", "unit": "kg/m3"},
      {"measurement": "mass density", "setting": "[1]; x1 = 0.699", "result": "733.63 ± 0.22", "unit": "kg/m3"},
      {"measurement": "mass density", "setting": "[1]; x1 = 0.7966", "result": "721.31 ± 0.22", "unit": "kg/m3"},
      {"measurement": "mass density", "setting": "[1]; x1 = 0.8955", "result": "709.92 ± 0.22", "unit": "kg/m3"},
      {"measurement": "mass density", "setting": "[1]; x1 = 1", "result": "698.6 ± 0.19", "unit": "kg/m3"}
    ]},
    {"compound": "CCCCCCC", "note": "[heptane] + Cc1ccccc1", "values": [
      {"measurement": "mass density", "setting": "[1]; x1 = 1", "result": "679.56 ± 0.2", "unit": "kg/m3"}
    ]},
    {"compound": "CCOS(=O)(=O)[O-].CC[n+]1cccc(C)c1", "note": "[1-ethyl-3-methylpyridinium ethylsulfate]", "values": [
      {"measurement": "mass density", "setting": "[2]", "result": "1219.61 ± 0.42", "unit": "kg/m3"},
      {"measurement": "refractive index", "setting": "[3]", "result": "1.50591 ± 0.00022"}
    ]},
    {"compound": "Cc1ccccc1", "note": "[toluene] + CCCCCCCC", "values": [
      {"measurement": "mass density", "setting": "[1]; x2 = 0", "result": "862.17 ± 0.14", "unit": "kg/m3"}
    ]},
    {"compound": "Cc1ccccc1", "note": "[toluene] + CCCCCCC", "values": [
      {"measurement": "mass density", "setting": "[1]; x2 = 0", "result": "862.17 ± 0.14", "unit": "kg/m3"},
      {"measurement": "mass density", "setting": "[1]; x2 = 0.0974", "result": "838.12 ± 0.28", "unit": "kg/m3"},
      {"measurement": "mass density", "setting": "[1]; x2 = 0.1996", "result": "814.81 ± 0.27", "unit": "kg/m3"},
      {"measurement": "mass density", "setting": "[1]; x2 = 0.2997", "result": "793.52 ± 0.26", "unit": "kg/m3"},
      {"measurement": "mass density", "setting": "[1]; x2 = 0.397", "result": "774.31 ± 0.25", "unit": "kg/m3"},
      {"measurement": "mass density", "setting": "[1]; x2 = 0.497", "result": "755.94 ± 0.24", "unit": "kg/m3"},
      {"measurement": "mass density", "setting": "[1]; x2 = 0.5961", "result": "738.9 ± 0.24", "unit": "kg/m3"},
      {"measurement": "mass density", "setting": "[1]; x2 = 0.6967", "result": "722.76 ± 0.24", "unit": "kg/m3"},
      {"measurement": "mass density", "setting": "[1]; x2 = 0.7958", "result": "707.78 ± 0.24", "unit": "kg/m3"},
      {"measurement": "mass density", "setting": "[1]; x2 = 0.8973", "result": "693.24 ± 0.23", "unit": "kg/m3"}
    ]}
  ]
}
